Measurements taken from publication PMC10004195, “Novel Dual-Target Kinase Inhibitors of EGFR and ALK Were Designed, Synthesized, and Induced Cell Apoptosis in Non-Small Cell Lung Cancer” (Molecules, 2023).

Columns and labels:
H2228 (EML4-ALK) cells = test: CCK8 antiproliferative assay, H2228 cells; format: cell-based, human; settings: Homo sapiens, NCI-H2228, 72 h, CCK8 assay, 72 h, H2228 (EML4-ALK); read-out: IC50 H2228
Text: The human cancer cell lines (H1975, H2228) used in this study were purchased from the Guangzhou ginny ou biotechnology Co., Ltd. (Guangzhou, China). The human cancer cell lines (NCI-H522) used in this study were purchased from the Shenzhen Haodi Huatuo Biotechnology Co., LTD (Shenzhen, China). The human cancer cell lines (LOVO, HLF, BJ, LO2) used in this study were purchased from the Laboratory Animal Service Center at Sun Yat-sen University (Guangzhou, China). […] Cell lines LOVO, HLF, BJ, and LO2 were cultivated in DMEM containing 10% (v/v) heat-inactivated fetal bovine serum (FBS), 100 units/mL penicillin, and 100 μg/mL streptomycin.

p-ERK = test: Western blot, p-ERK; format: cell-based, human; settings: WB, 5, 10 and 100 nM, 3 h treatment
Description: (§1) Four kinases (EGFR, EGFR^L858R/T790M, ALK, and EML4-ALK) were tested using an ELISA assay. […] There was no effect on the wild-type EGFR or ALK kinases triggered by the compound. Consequently, the selection of the compound was good as both compounds balanced IC50 against EGFR and ALK, respectively. […] Following that, fluorescence assays were used to measure the phosphorylation of the EGFR and ALK protein affect with compound 9j at the cellular level. […] Next, WB assay was used to test the protein expression of H1975 and H2228 cells at the concentration of 5, 10, and 100 nM.
(§2) H1975 (H2228) cells seeded in 60 mm dishes at a density of 5 × 10^5 cells/well were incubated with or without compound 9j (0, 5, 10, 100 nM) for 2–4 h. After treatment, cells were stained as previously described.

H522 cells = test: CCK8 antiproliferative assay, H522 cells; format: cell-based; settings: Homo sapiens, NCI-H522, 72 h
Text: The human cancer cell lines (H1975, H2228) used in this study were purchased from the Guangzhou ginny ou biotechnology Co., Ltd. (Guangzhou, China). The human cancer cell lines (NCI-H522) used in this study were purchased from the Shenzhen Haodi Huatuo Biotechnology Co., LTD (Shenzhen, China). The human cancer cell lines (LOVO, HLF, BJ, LO2) used in this study were purchased from the Laboratory Animal Service Center at Sun Yat-sen University (Guangzhou, China). Cell lines were cultivated in 1640 containing 10% (v/v) heat-inactivated fetal bovine serum (FBS), 100 units/mL penicillin, and 100 μg/mL streptomycin. Cell lines LOVO, HLF, BJ, and LO2 were cultivated in DMEM containing 10% (v/v) heat-inactivated fetal bovine serum (FBS), 100 units/mL penicillin, and 100 μg/mL streptomycin.

EGFR^L858R/T790M = EGFR^L858R/T790M (Homo sapiens, UniProt P00533, L858R/T790M); test: Kinase ELISA assay, EGFR L858R/T790M; format: biochemical; settings: read-out: IC50 against EGFR^L858R/T790M
EGFR^L858R/T790M, sequence (P00533 25-1210 T790M/L858R): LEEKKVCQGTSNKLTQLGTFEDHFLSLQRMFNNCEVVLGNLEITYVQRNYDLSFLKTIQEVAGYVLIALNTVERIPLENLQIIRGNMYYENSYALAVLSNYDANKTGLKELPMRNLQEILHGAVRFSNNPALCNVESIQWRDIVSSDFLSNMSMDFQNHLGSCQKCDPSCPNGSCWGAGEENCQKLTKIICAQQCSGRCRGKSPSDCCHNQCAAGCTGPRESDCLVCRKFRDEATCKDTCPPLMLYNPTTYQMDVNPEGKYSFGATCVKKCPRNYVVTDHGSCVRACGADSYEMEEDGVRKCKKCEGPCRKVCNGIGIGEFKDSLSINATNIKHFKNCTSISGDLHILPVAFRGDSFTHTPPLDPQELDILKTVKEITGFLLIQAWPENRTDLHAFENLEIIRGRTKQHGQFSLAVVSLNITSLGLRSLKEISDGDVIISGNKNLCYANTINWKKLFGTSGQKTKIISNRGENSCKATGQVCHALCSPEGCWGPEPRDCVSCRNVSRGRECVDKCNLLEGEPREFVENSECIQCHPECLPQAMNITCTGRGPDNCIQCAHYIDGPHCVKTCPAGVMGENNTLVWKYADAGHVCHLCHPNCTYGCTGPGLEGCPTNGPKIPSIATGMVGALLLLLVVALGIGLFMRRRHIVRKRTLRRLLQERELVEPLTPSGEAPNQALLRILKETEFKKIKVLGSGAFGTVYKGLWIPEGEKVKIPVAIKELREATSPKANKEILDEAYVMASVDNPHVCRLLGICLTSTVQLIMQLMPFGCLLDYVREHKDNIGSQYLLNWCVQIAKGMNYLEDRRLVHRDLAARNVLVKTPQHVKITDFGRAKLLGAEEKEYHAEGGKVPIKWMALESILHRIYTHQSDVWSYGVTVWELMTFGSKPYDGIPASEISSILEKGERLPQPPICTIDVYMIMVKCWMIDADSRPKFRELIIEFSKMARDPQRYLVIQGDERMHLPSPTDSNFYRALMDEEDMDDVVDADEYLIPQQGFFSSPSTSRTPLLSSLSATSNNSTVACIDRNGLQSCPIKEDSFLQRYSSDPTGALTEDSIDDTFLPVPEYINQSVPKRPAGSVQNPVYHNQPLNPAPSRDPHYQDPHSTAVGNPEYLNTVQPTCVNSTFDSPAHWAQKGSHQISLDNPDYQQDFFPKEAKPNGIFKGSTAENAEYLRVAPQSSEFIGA
Description: as §1

[1] = tested on: phosphorylated EGFR (p-EGFR); test: Immunofluorescence assay of phosphorylated EGFR; format: cell-based, human; settings: fluorescence assay, treatment for 2 to 4 h
Description: as §1
Figure 2 (A) The activity of compound 9j against four kinases (EGFR, ALK, EGFR ^L858R T790M, and EML4-ALK). (B) H1975 and H2228 cells were treated with 9j for 2–4 h; the staining for phosphorylated EGFR (p-EGFR) and phosphorylated ALK (p-ALK) was shown as red fluorescence. (C) WB analysis of phosphorylated proteins in drug-treated H1975 and H2228 cells.

[2] = tested on: HUVEC (human umbilical vein endothelial cells); test: Cytotoxicity test on nontumorigenic cells, HUVEC; format: cell-based
Text: (§3) It is critical to evaluate the balance between the safety and efficacy of drugs for the development of new drugs; thus, we then conducted a cytotoxicity test on […] types of nontumorigenic cell lines from different origins, including LO2 (human normal liver cells), HK2 (human kidney proximal convoluted tubule epithelial cells), HLF (human embryonic lung fibroblast), 293A (human embryonic kidney cells), and HUVEC (human umbilical vein endothelial cells). […] In addition, we evaluated the compound’s safety in vivo by performing acute toxicity tests in mice, and 9j was injected intravenously at concentrations of 100 mg/kg, 150 mg/kg, and 300 mg/kg.
A total of 7000 cells per well were seeded in a 96-well plate with at least three technical replicates; then, exposed to different concentrations (10, 5, 1, 0.1, 0.05, 0.01 uM) of the test compounds for 72 h. After the treatment, CCK8 (Sigma, St. Louis, MO, USA) was added to each well under sterile conditions (to a final concentration of 10% of the total volume) and the plates were incubated for 2–4 h at 37 °C. Absorbance was measured at 450 nm in a microplate reader.

mice = test: Acute toxicity test in mice; settings: injected intravenously, 100, 150 and 300 mg/kg (Figure S1)
Text: as §3

p-ALK = test: Western blot, p-ALK; format: cell-based, human; settings: WB, 5, 10 and 100 nM, 3 h treatment
Description: as §1, §2

H1975 cells = test: Wound-healing (cell scratching) assay; format: cell-based, human; settings: H1975, 48 h; PBS group about 70%
Description: The migration and invasion of tumor cells directly contribute to metastasis. Metastasis is the leading cause of death in cancer patients. To determine the ability of 9j to inhibit tumor cell migration, the cell scratching assay was performed. Following scratching, phase contrast pictures were taken of the scratched and healing cell monolayers.
H1975 cells were plated in a six-well culture dish at 5 × 10^4 cells/dish and grown for 24 h, and […]. The medium was then replaced with a serum-free 1640 medium and treated with compound 9j at the indicated concentrations for another 24 h or 48 h. After the samples were washed with phosphate buffer solution (PBS), the cell images were immediately detected by a Zeiss LSM 570 laser scanning confocal microscope (Carl Zeiss, Jena, Germany).

SMILES: C=CC(=O)Nc1cc(Nc2ncc(Cl)c(Nc3ccc(Cl)cc3[S+]([O-])C(C)C)n2)c(OC)cc1C1CCN(C)CC1 (stereo not shown) [9j, N-(5-((5-Chloro-4-((4-chloro-2-(isopropylsulfinyl)phenyl)amino)pyrimidin-2-yl)amino)-4-methoxy-2-(1-methylpiperidin-4-yl)phenyl)acrylamide]
- IC50 (H2228 (EML4-ALK) cells): 81.8 ± 20 nM
- expression of p-ERK (p-ERK): inhibited
- IC50 (H522 cells): > 10000 nM
- IC50 (EGFR^L858R/T790M): 35.7 ± 0.9 nM
- expression level of phosphorylated EGFR protein [1]: decreased significantly
- Selectivity Ratio (IC50 human normal cells)/(IC50 H1975), HUVEC ([2]; HUVEC vs H1975): 273.8
- IC50 ([2]; Homo sapiens, HUVEC, mean ± SE, read-out: Toxicity to normal cells, IC50 HUVEC): 21360 ± 60 nM
- HE staining of lung and heart tissues (mice): did not indicate toxicity
- expression of p-ALK (p-ALK): inhibited
- scratch healing rate (H1975 cells): clearly decreased
